# Biological target: T1, recombinant human mPGES-1 (Homo sapiens, UniProt O14684)
# T1 construct: made in house; host or cells: Rosetta E. coli (membrane/microsome fraction)
# T1 sequence (O14684 1-152): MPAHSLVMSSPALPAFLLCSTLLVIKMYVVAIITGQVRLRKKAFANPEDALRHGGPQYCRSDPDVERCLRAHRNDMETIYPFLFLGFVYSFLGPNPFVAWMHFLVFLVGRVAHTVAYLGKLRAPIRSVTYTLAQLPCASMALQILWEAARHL
# Experiment: Assay B: mPGES-1 enzyme assay (modified)
# Assay type: biochemical
# Settings: biological assay B (modified); PGH2 final conc. 2 μM; read-out: mPGES-1 inhibitory effect IC50
# Description: Assay B: mPGES-1 Enzyme Assay (Modified)
# Microsomes from Rosetta E. coli bacteria expressing recombinant human mPGES-1 can be derived as described below:
# Inoculate 5 ml LB with Ampicilin (50 μg/ml) and Chloramphenicol (34 μg/ml) with bacteria from freeze culture. Incubate 8 h at 37° C. with 200 rpm. Thereafter, inoculate 500-1000 ml LB containing Ampicilin and Chloramphenicol with the 5 ml on culture and grow to OD640 of 0.8-1.0. Chill the culture to +4° C. before induction. Induce the culture with IPTG at a final concentration of 400 μM. Express the protein at room temp 18-23° C. with 200 rpm shaking overnight.
# The following steps can be performed on the following day: • 1. Spin down the cells in 250 ml centrifuge flasks for 15 min at 7000 rpm (Beckmann Coulte Avanti J-E centrifuge) • 2. Dissolve the pellet from 250 ml culture in 12.5 ml homogenization buffer • 3. (15 mM Tris-HCL pH8, 1 mM EDTA pH8, […], 2.5 mM GSH, 1 Tablet Protease inhibitor per 50 ml buffer) • 4. Disintegrate the cells by sonication, 5×10 seconds at 48% amplitude of a 750 W sonifier • 5. Add 2.5 ml MgCl2 (100 mM) and DNase 12.5 μl (0.8 mg/ml) and incubate on ice for 30 min • 6. Spin down the bacteria debris and save the supernatant, 7000 rpm for 15 min • 7. Isolate the protein containing membranes in the supernatant by ultracentrifugation 120000×g for 2 hour at 4° C. (Sorvall T880 rotor). • 8. Discard the supernatant and dissolve the pellet in 20 mM Potassium phosphate buffer pH7.4 (KH2PO4 and K2HPO4) buffer by sonication (5×10 s, 30% of a 50 W sonifier) and aliquot the enzyme and store aliquots at −80° C.
# Before each experiment is performed an aliquot of the enzyme is thawed and it can then be dissolved in 0.1 M Potassium phosphate buffer pH7.4 (KH2PO4 and K2HPO4) buffer containing 2.5 mM GSH.
# The aim of this assay is to determine the affinity of a test compound for the mPGES-1 enzyme.
# 47 μl of recombinant human mPGES-1 (˜0.5 μg protein/well) containing microsomal suspension in a buffer containing GSH, (2.5 mmol/L L-Glutathione reduced, dissolved in 0.1 mol/L Phosphat Buffer pH 7.4) is dispensed in a 384-well plate and thereafter 1 μl of the test compound(s) is/are added and incubated for 25 minutes at room temperature. The enzyme reaction is started by the addition of 2 ul PGH2 (final conc. 2 μM) dissolved in water-free Diglyme. After 60 seconds the reaction is terminated by addition of a stop solution containing FeCl2 (10 μL 0.074 mol/l FeCl2). The samples are diluted between 1:25 in PBS (Phosphate Buffered Saline). 10 μl of the diluted samples are transferred to 384-well low volume plate. In order to quantify the amount of PGE2 that has been formed, a homogenous time resolved fluorescent (HTRF) detecting of PGE2 has been performed using a commercially available kit from Cisbio according to the manufactures recommendation. This HTRF-based assay has been described in detail (see: Goedken et al., J Biomol Screen, 2008, 13(7), 619-625). Briefly, the diluted samples are mixed with 5 μl PGE2-d2 conjungate and 5 μl anti-PGE2 cryptate conjungate. After an incubation period of the plates overnight, the fluorescence is measured by the use of an appropriate microplate reader.
# The fluorescence of Europium cryptate (maxex=307 nm, maxem=620 nm) and d2-PGE2 (maxex=620 nm, maxem=665 nm) are measured.
# The extent of the specific HTRF is measured as a ratio of the emission intensity at 665 nm vs. that at 620 nm at an excitation puls of 320 nm. The quantification plate contains also wells with different concentrations of PGE2 as calibration curve for the calculation of the PGE2 concentrations from the HTRF ratio values.
# From all mPGES enzyme assay the background is subtracted and the IC50 is calculated over a nonlinear regression with conventional software.
row,SMILES,IC50 [nM]
1,"CC(C)(C)C(=O)NCc1ccc(Cl)c(Nc2nc3cc(Cl)c(N4CCC(C(F)(F)F)CC4)cc3[nH]2)c1Cl [Example 40, N-{2,4-Dichloro-3-[5-chloro-6-(4-trifluoromethyl-piperidin-1-yl)-1H-benzimidazol-2-ylamino]-benzyl}-2,2-dimethyl-propionamide]",5.7
2,Cn1c(Nc2cc(CNC(=O)C(C)(C)C(F)(F)F)ccc2Cl)nc2cc(Cl)c(N3CCN(c4ccc(C(F)(F)F)cc4)CC3)cc21 [Example 98],6.5
3,"Cn1c(Nc2c(F)ccc(CNC(=O)C(C)(C)C)c2F)nc2cc(Cl)c(N3CCC(C(F)(F)F)CC3)cc21 [Example 70, N-{2,4-Difluoro-3-[5-chloro-1-methyl-6-(4-trifluoromethyl-piperidin-1-yl)-1H-benzimidazol-2-ylamino]-benzyl}-2,2-dimethyl-propionamide]",6.5
4,Cn1c(Nc2c(Cl)ccc(CNC(=O)OC(C)(C)C)c2Cl)nc2cc(Cl)c(N3CCCC(C(F)(F)F)C3)cc21 (stereo not drawn) [Example 51],23
5,CN(CC(C)(C)O)c1cc2c(cc1Cl)nc(Nc1c(Cl)ccc(CNC(=O)C(C)(C)C)c1F)n2C [Example 37],7.8
6,Cn1c(Nc2cc(CNC(=O)C3(C(F)(F)F)CC3)ccc2Cl)nc2cc(Cl)c(N3CCN(CC(F)(F)F)CC3)cc21 [Example 92],39
7,CC(C)(C)C(=O)NCc1ccc(Cl)c(Nc2nc3cc(Cl)c(N4CCC(F)CC4)cc3[nH]2)c1F [Example 48],9
8,Cn1c(Nc2cc(CNC(=O)C(C)(C)C)ccc2Cl)nc2cc(N3CCC(C(F)(F)F)CC3)ccc21 [Example 12],174
9,"CC(C)(C)C(=O)NCc1ccc(Cl)c(Nc2nc3cc(C(F)(F)F)c(N4CCC(C(F)(F)F)CC4)cc3[nH]2)c1Cl [Example 61, N-{2,4-Dichloro-3-[5-trifluoromethyl-6-(4-trifluoromethyl-piperidin-1-yl)-1H-benzimidazol-2-ylamino]benzyl}-2,2-dimethyl-propionamide]",5

# Next, values leading:
row,IC50 [nM],SMILES
1,3.1,Cn1c(Nc2cc(CNC(=O)C(C)(C)C(F)(F)F)ccc2Cl)nc2cc(Cl)c(N3CCC(c4ccccc4)CC3)cc21 [Example 97]
2,2,Cn1c(Nc2c(Cl)ccc(CNC(=O)C(C)(C)C)c2Cl)nc2cc(Cl)c(N3CCC(C(F)(F)F)C3)cc21 (stereo not drawn) [Example 59]
3,5,CC(C)(C)C(=O)NCc1ccc(Cl)c(Nc2nc3cc(C#N)c(N4CCC(C(F)(F)F)CC4)cc3[nH]2)c1Cl [Example 131]
4,3,"Cn1c(Nc2c(Cl)ccc(CNC(=O)C(C)(C)C)c2F)nc2cc(Cl)c(N3CCC(F)CC3)cc21 [Example 33, N-{2-Fluoro-4-chloro-3-[5-chloro-1-methyl-6-(4-fluoro-piperidin-1-yl)-1H-benzimidazol-2-ylamino]-benzyl}-2,2-dimethyl-propionamide]"
5,3.5,Cn1c(Nc2c(Cl)ccc(CNC(=O)C(C)(C)C)c2Cl)nc2cc(Cl)c(N3CCCC(C(F)(F)F)C3)cc21 (stereo not drawn) [Example 53]
6,2.2,CC(C)(C)C(=O)NCc1ccc(Cl)c(Nc2nc3cc(Cl)c(N4CCCC(C(F)(F)F)C4)cc3[nH]2)c1Cl (stereo not drawn) [Example 52]

# From US8466186B2, “Compounds” (Boehringer Ingelheim International GmbH, priority 2010, dated 2013)
